Assay results as given in US20070099855A1 (priority 2003, published 2007).

System: SARS-associated coronavirus
Test: organism not typed
Type: cell-based
Conditions: for EC50: Vero
[1] = Vero cell cultures, cytopathic effect scored 72-96 h after infection, mean of eight assays
[2] = Vero cell cultures, tested as in Example 1

SMILES	effect on replication of the SARS-associated coronaviruses (Vero cells)	Therap. IndexI (Vero cells)	EC50 [2] [µM]	other results
CC1(C)C(OC2OC(C(=O)O)C(O)C(O)C2OC2OC(C(=O)O)C(O)C(O)C2O)CC[C@]2(C)[C@H]3C(=O)C=C4[C@@H]5C[C@@](C)(C(=O)O)CC[C@]5(C)CC[C@@]4(C)[C@]3(C)CC[C@@H]12 (stereo partly drawn) [Glycyrrhizin, (3-beta,20-beta)-20-Carboxy-11-oxo-30-norolean-12-en-3-yl 2-O-beta-D-glucopyranuronosyl-alpha-D-glucopyranosiduronic acid]	–	–	–	EC50 (compound added after virus adsorption, Vero cells): 600 µg/mL; EC50 (compound added during and after virus adsorption, Vero cells): 300 µg/mL; EC50 (compound added during virus adsorption, Vero cells): 2400 µg/mL; Selectivity Index (after virus adsorption, CC50/EC50): >33; Selectivity Index (during and after virus adsorption, CC50/EC50): >67
NC(=O)c1ncn([C@@H]2O[C@H](CO)[C@@H](O)[C@H]2O)n1 [Ribavirin]	did not affect replication	–	–	EC50 [1]: > 1000 µg/mL
COc1c(C)c2c(c(O)c1C/C=C(\C)CCC(=O)O)C(=O)OC2 [Mycophenolic acid]	did not affect replication	–	–	EC50 [1]: > 50 µg/mL
COC(=O)[C@@]1(C)CC[C@]2(C)CC[C@]3(C)C(=CC(=O)C4[C@@]5(C)CCC(OC6OC(CO)C(O)C(O)C6OC6OC(CO)C(O)C(O)C6O)C(C)(C)C5CC[C@]43C)C2C1 (some centres unmarked) [Compound 8]	–	6	8	–
NC(=O)c1[nH]nc([C@@H]2O[C@H](CO)[C@@H](O)[C@H]2O)c1O [Pyrazofurin]	inhibited replication of SARS-CV at non-toxic doses	–	–	Selectivity Index (ratio CC50/EC50, Vero cells): 12
O=c1cnn([C@@H]2O[C@H](CO)[C@@H](O)[C@H]2O)c(=O)[nH]1 [Compound 6-azauridine, 6-azauridine]	inhibited replication of SARS-CV at non-toxic doses	–	–	Selectivity Index (ratio CC50/EC50, Vero cells): 6; Selectivity Index (ratio CC50/EC50, Vero cells, listed as 6-azuridine): 5
COC(=O)[C@@]1(C)CC[C@]2(C)CC[C@]3(C)C(=CC(=O)C4[C@@]5(C)CCC(OC6OC(C(=O)NN)C(O)C(O)C6OC6OC(C(=O)NN)C(O)C(O)C6O)C(C)(C)C5CC[C@]43C)C2C1 (some centres unmarked) [Compound 7]	–	4	16	–
CC1(C)C(OC2OC(C(=O)O)C(O)C(O)C2OC2OC(C(=O)O)C(O)C(O)C2O)CC[C@@]2(C)C1CC[C@]1(C)C2C(=O)C=C2C3C[C@@](C)(C(=O)O)CC[C@]3(C)CC[C@]21C.N (some centres unmarked) [Glycyrrhizin Monoammonium Salt]	–	2	327	–
